Measured values taken from patent US11945822B2, “Pyrazolo-triazine and/or pyrazolo-pxrimidine derivatives as selective inhibitor of cyclin dependent kinase” (QURIENT CO., LTD., priority 2018, dated 2024).
pIC50: −log10 of the molar value.

Legend:
CDK1/Cyclin B = biological target: T1, CDK1/Cyclin B (Homo sapiens, UniProt P06493); test: Enzymatic assay for CDK1 (FRET based LANCE Ultra kinase assay); assay type: biochemical; conditions: read-out: CDK1 enzymatic activity (IC50 range)
T1 construct: purchased Invitrogen PR4768C
Summary of the method: (§1)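 LANCE Ultra TR-FRET: ULight-MBP peptide (68 nM) with ATP at Km, […], 60 min at 23° C. EDTA plus Eu-anti-phospho-MBP added, another 60 min, then 665/615 nm emission read. Compounds tested as 8-dose 4-fold DMSO dilutions.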

CDK2/Cyclin A = biological target: T2, CDK2/Cyclin A (Homo sapiens, UniProt P24941); test: Enzymatic assay for CDK2 (FRET based LANCE Ultra kinase assay); assay type: biochemical; conditions: read-out: CDK2 enzymatic activity (IC50 range)
T2 construct: purchased Invitrogen PV6290
Summary of the method: as §1

CDK5/p25 = biological target: T3, CDK5/p25 (Homo sapiens, UniProt Q00535); test: Enzymatic assay for CDK5 (FRET based LANCE Ultra kinase assay); assay type: biochemical; conditions: read-out: CDK5 enzymatic activity (IC50 range)
T3 construct: purchased Invitrogen PR8543B
Summary of the method: as §1

CDK7/Cyclin H/MNAT1 = biological target: T4, CDK7/Cyclin H/MNAT1 (Homo sapiens, UniProt P50613); test: Enzymatic assay for CDK7 (FRET based LANCE Ultra kinase assay); assay type: biochemical; conditions: for pIC50: read-out: CDK7 enzymatic activity (IC50 range)
T4 construct: purchased Invitrogen PR6749B
Summary of the method: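 LANCE Ultra TR-FRET kinase assay using a ULight-labeled peptide substrate and a Eu-labeled anti-phospho antibody, with ATP at its Km. Purified CDK/cyclin complex was added to compound after brief centrifugation.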

H460 = test: Cellular H460 viability assay (CellTiter-Glo, 72 hours); assay type: cell-based; conditions: Homo sapiens, NCI-H460
Summary of the method: (§2)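 Steps: seed cells at per-line density; add compound, DMSO vehicle kept under 0.1% final; incubate 72 h, 37 °C, 5% CO2; lyse with CellTiter-Glo and read luminescence; run in duplicate.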

MV4-11 = test: Cellular MV4-11 viability assay (CellTiter-Glo, 72 hours); assay type: cell-based; conditions: Homo sapiens
Summary of the method: as §2

MOLT-4 = test: Cellular MOLT-4 viability assay (CellTiter-Glo, 72 hours); assay type: cell-based; conditions: Homo sapiens, MOLT4 viability assay
Protocol: All cell lines were routinely tested for mycoplasma.
The effect of the CDK7 inhibitor to inhibit the growth of target cancer cells was evaluated through the 72 hours time period of viability assay. Briefly, the candidate cell line ware plated in 96 well plate at the following density of cells respectively. […] DMSO solvent without compound served as a control and final DMSO concentration less than 0.1%. After 72 hours of incubation at 37° C., 5% CO2 incubator, cells were analyzed for the viability using the CellTiter-Glo Luminescent Cell Viability Assay (Promega, Cat #G7570). All viability assays were performed in duplicate and Luminescence was read using an Envision (Perkin Elmer, USA). Data was analyzed using XLfit software.

HCT116 = test: Cellular HCT116 viability assay (CellTiter-Glo, 72 hours); assay type: cell-based; conditions: Homo sapiens, HCT-116
Summary of the method: as §2

T3 sequence (Q00535 whole entry): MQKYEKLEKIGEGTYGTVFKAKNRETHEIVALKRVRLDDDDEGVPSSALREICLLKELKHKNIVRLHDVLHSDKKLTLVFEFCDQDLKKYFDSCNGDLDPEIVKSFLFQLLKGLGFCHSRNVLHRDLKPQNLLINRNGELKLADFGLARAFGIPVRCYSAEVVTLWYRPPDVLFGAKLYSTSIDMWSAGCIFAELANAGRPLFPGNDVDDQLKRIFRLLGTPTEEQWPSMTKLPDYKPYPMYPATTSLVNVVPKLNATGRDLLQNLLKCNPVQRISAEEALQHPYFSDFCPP
T3 sequence (Q15078 99-307 partner limits assumed): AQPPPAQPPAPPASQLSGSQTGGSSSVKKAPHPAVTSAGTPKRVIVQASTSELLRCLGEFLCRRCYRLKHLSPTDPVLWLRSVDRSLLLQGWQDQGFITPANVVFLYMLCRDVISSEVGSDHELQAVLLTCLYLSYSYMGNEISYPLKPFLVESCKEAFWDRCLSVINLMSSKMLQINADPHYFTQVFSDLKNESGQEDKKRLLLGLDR
T4 sequence (P50613 whole entry): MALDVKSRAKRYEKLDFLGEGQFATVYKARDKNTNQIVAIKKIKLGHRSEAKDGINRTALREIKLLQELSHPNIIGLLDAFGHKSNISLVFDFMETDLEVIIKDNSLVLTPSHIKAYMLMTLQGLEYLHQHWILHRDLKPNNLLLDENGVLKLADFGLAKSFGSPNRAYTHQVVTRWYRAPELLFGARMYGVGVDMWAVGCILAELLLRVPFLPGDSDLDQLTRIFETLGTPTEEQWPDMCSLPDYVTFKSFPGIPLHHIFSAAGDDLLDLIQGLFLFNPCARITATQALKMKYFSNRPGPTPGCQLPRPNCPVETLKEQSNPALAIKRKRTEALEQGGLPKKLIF
T4 sequence (P51946 whole entry partner): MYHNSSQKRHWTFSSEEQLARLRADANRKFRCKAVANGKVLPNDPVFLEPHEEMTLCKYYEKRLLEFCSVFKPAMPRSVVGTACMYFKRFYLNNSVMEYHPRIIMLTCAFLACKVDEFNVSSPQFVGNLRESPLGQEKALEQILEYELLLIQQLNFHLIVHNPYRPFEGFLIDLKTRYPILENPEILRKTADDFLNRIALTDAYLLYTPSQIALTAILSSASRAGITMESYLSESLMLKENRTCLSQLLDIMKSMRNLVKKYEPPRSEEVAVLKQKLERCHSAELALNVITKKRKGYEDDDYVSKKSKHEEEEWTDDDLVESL
T4 sequence (P51948 whole entry partner): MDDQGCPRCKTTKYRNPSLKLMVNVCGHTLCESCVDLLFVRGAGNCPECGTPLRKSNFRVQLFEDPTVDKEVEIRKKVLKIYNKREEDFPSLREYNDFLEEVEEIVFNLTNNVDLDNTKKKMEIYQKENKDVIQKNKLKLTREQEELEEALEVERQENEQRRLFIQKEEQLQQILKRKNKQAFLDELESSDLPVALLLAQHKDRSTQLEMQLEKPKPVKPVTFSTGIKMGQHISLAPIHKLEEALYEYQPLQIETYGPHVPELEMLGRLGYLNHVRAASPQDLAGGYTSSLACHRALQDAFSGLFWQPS
T1 sequence (P06493 whole entry): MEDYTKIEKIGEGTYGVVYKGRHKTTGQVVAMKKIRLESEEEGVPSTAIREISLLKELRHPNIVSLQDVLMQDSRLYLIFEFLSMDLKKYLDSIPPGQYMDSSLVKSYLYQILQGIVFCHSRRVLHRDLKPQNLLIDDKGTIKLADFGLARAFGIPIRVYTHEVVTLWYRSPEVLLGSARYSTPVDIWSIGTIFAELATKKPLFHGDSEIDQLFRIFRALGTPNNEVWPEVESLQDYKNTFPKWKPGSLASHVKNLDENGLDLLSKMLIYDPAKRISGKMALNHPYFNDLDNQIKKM
T1 sequence (P14635 whole entry partner): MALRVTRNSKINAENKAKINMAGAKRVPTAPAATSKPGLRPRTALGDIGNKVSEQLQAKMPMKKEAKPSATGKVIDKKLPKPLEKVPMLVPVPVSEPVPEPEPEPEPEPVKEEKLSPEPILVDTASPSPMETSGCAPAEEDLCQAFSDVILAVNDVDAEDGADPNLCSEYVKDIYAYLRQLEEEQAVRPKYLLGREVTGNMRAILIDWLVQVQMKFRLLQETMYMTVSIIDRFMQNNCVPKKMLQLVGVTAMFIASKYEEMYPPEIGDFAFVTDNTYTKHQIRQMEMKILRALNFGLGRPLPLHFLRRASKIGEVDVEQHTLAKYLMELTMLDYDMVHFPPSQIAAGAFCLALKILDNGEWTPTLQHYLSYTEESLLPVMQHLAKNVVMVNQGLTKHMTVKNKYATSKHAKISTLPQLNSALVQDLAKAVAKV

SMILES | pIC50 (CDK1/Cyclin B) | pIC50 (CDK2/Cyclin A) | pIC50 (CDK5/p25) | pIC50 (CDK7/Cyclin H/MNAT1) | pIC50 (H460) | pIC50 (MV4-11) | pIC50 (MOLT-4) | pIC50 (HCT116) | CDK1/CDK7: Selectivity of CDK7 inhibition over CDK1 inhibition (CDK7/Cyclin H/MNAT1) | CDK2/CDK7: Selectivity of CDK7 inhibition over CDK2 inhibition (CDK7/Cyclin H/MNAT1) | CDK5/CDK7: Selectivity of CDK7 inhibition over CDK5 inhibition (CDK7/Cyclin H/MNAT1)
CC(C)c1cnn2c(NCc3ccccc3-n3cccn3)nc(NC3CCNCC3)nc12 [Compound 40] | < 6.00 | 6.00 to 7.00 | 6.00 to 7.00 | > 7.00 | > 6.00 | > 6.00 | < 5.00 |  | A (A=greater than 200 fold) | B (B=less than 200 fold, but greater than 20 fold) | C (C=less than 20 fold)
CC(C)c1cnn2c(NCc3ccccc3-n3cccn3)cc(N3CCC(N)CC3)nc12 [Compound 1] | < 6.00 | < 6.00 | 6.00 to 7.00 | > 7.00 | > 6.00 |  | 5.00 to 6.00 | 5.00 to 6.00 | B (B=less than 200 fold, but greater than 20 fold) | B (B=less than 200 fold, but greater than 20 fold) | C (C=less than 20 fold)
CC(C)(C)c1cnn2c(NCc3ccccc3-n3cccn3)nc(N3CCC(N)CC3)nc12 [Compound 24] | 6.00 to 7.00 | 6.00 to 7.00 | > 7.00 | > 7.00 | > 6.00 |  | 5.00 to 6.00 | > 6.00 | B (B=less than 200 fold, but greater than 20 fold) | B (B=less than 200 fold, but greater than 20 fold) | B (B=less than 200 fold, but greater than 20 fold)
CC(C)c1cnn2c(NCc3cccc(-n4cccn4)c3)nc(N3CCC(N)CC3)nc12 [Compound 47] | 6.00 to 7.00 | 6.00 to 7.00 | > 7.00 | > 7.00 | > 6.00 |  | 5.00 to 6.00 | > 6.00 | B (B=less than 200 fold, but greater than 20 fold) | B (B=less than 200 fold, but greater than 20 fold) | C (C=less than 20 fold)
CC(C)c1cnn2c(NCc3cccc(Oc4ccccc4)c3)nc(N3CCC(N)CC3)nc12 [Compound 51] | < 6.00 | < 6.00 | < 6.00 | > 7.00 | 5.00 to 6.00 |  | 5.00 to 6.00 | 5.00 to 6.00 | B (B=less than 200 fold, but greater than 20 fold) | B (B=less than 200 fold, but greater than 20 fold) | B (B=less than 200 fold, but greater than 20 fold)
CC(C)c1cnn2c(NCc3ccccc3-n3cccn3)nc(N3CCN(C)CC3)nc12 [Compound 3] | < 6.00 | < 6.00 | 6.00 to 7.00 | > 7.00 | 5.00 to 6.00 |  | < 5.00 |  | A (A=greater than 200 fold) | B (B=less than 200 fold, but greater than 20 fold) | B (B=less than 200 fold, but greater than 20 fold)
CC(C)c1cnn2c(NCc3ccccc3Oc3ccc4ccccc4n3)nc(N3CCC(N)CC3)nc12 [Compound 74] | < 6.00 | < 6.00 | 6.00 to 7.00 | > 7.00 | 5.00 to 6.00 |  | < 5.00 |  | B (B=less than 200 fold, but greater than 20 fold) | B (B=less than 200 fold, but greater than 20 fold) | B (B=less than 200 fold, but greater than 20 fold)
CC(C)c1cnn2c(NCc3ccccc3N(C)C3CCN(C)CC3)nc(N3CCC(N)CC3)nc12 [Compound 53] |  |  |  |  | > 6.00 |  | 5.00 to 6.00 | 5.00 to 6.00 |  |  | 
CC(C)c1cnn2c(NCc3cccc(NC(=O)c4cccc(NC(=O)CCCN(C)C)c4)c3)nc(N3CCC(N)CC3)nc12 [Compound 70] | < 6.00 | 6.00 to 7.00 | 6.00 to 7.00 | > 7.00 | 5.00 to 6.00 |  | < 5.00 |  | A (A=greater than 200 fold) | B (B=less than 200 fold, but greater than 20 fold) | B (B=less than 200 fold, but greater than 20 fold)
CC(C)c1cnn2c(NCc3cccc(NC(=O)c4ccccc4)c3)nc(N3CCC(N)CC3)nc12 [Compound 50] |  |  |  |  | > 6.00 |  | 5.00 to 6.00 | 5.00 to 6.00 |  |  | 

Further lines, with some results ahead:

pIC50 (CDK1/Cyclin B) | pIC50 (CDK2/Cyclin A) | pIC50 (CDK5/p25) | pIC50 (CDK7/Cyclin H/MNAT1) | pIC50 (H460) | pIC50 (MV4-11) | pIC50 (MOLT-4) | pIC50 (HCT116) | SMILES | CDK1/CDK7: Selectivity of CDK7 inhibition over CDK1 inhibition (CDK7/Cyclin H/MNAT1) | CDK2/CDK7: Selectivity of CDK7 inhibition over CDK2 inhibition (CDK7/Cyclin H/MNAT1) | CDK5/CDK7: Selectivity of CDK7 inhibition over CDK5 inhibition (CDK7/Cyclin H/MNAT1)
 |  |  |  | 5.00 to 6.00 |  | 5.00 to 6.00 | 5.00 to 6.00 | CC(C)c1cnn2c(NCc3ccccc3NC3CCN(C)CC3)nc(N3CCC(N)CC3)nc12 [Compound 49] |  |  | 
6.00 to 7.00 | 6.00 to 7.00 | 6.00 to 7.00 | > 7.00 | 5.00 to 6.00 |  | 5.00 to 6.00 |  | CCCc1ccccc1CNc1nc(N2CCC(N)CC2)nc2c(C(C)C)cnn12 [Compound 55] | B (B=less than 200 fold, but greater than 20 fold) | B (B=less than 200 fold, but greater than 20 fold) | C (C=less than 20 fold)
< 6.00 | < 6.00 | 6.00 to 7.00 | > 7.00 | 5.00 to 6.00 |  | 5.00 to 6.00 |  | Cc1ccc(-n2cccn2)cc1CNc1nc(N2CCC(N)CC2)nc2c(C(C)C)cnn12 [Compound 75] | A (A=greater than 200 fold) | B (B=less than 200 fold, but greater than 20 fold) | B (B=less than 200 fold, but greater than 20 fold)
< 6.00 | < 6.00 | 6.00 to 7.00 | > 7.00 | 5.00 to 6.00 |  | 5.00 to 6.00 |  | CC(C)c1cnn2c(NCc3ccccc3OCc3ccccc3)nc(N3CCC(N)CC3)nc12 [Compound 57] | A (A=greater than 200 fold) | A (A=greater than 200 fold) | B (B=less than 200 fold, but greater than 20 fold)
< 6.00 | < 6.00 | 6.00 to 7.00 | > 7.00 | > 6.00 | > 6.00 | < 5.00 |  | CC(=O)N(C)c1ccccc1CNc1nc(N2CCC(N)CC2)nc2c(C(C)C)cnn12 [Compound 64] | A (A=greater than 200 fold) | A (A=greater than 200 fold) | B (B=less than 200 fold, but greater than 20 fold)
